Measurements from patent US20230210735A1, “PREVENTION, REDUCTION, OR AMELIORATION OF OLD PERSON SMELL” (Firmenich SA, priority 2020, published 2023).

Key:
[1] = POV reduction in model citrus perfume (mixed citrus oil in 90/10 v/v ethanol/water); conditions: for % POV Reduction: model citrus perfume, vs untreated sample
[2] = Aldehyde and ketone reaction products by HPLC with DNPH derivatization in a soap formulation; conditions: treated vs untreated soap, peak area
Method: The extent of rancidity in the soap formulation tested was determined by measuring the content of aldehyde and ketone reaction products of the soap oils present. DNPH derivatives of aldehydes/ketone products in soap and treated soap were synthesized as follows:
0.1000 g of a soap formulation, either treated or untreated with DiMeC10A-PhPA were separately measured and diluted to 12 mL by the addition of propan-2-ol. 1 mL of this prepared diluted mixture was added to 1 mL of diluted DNPH solution which was prepared separately by mixing DNPH (3 g/L) and 3% HCL and diluted into 12 mL by the addition of propan-2-ol. The reaction vial was stirred and kept at 40C for 1 hr to accelerate derivatization reaction. Then it was cooled to room temperature and neutralized with 20% triethylamine and centrifuged at 5000 rpm for 5 min. The sample was then injected into the HPLC column.

[3] = POV by titration in formulated ranch salad dressing
Description: Blank Samples: In all of the experiments below, an Untreated Oil (Blank) sample was maintained. The Blank was always packaged, stored, handled, and sampled in exactly the same manner as the Treated Sample, excepting the addition of the 2-oxoacid salt. In this way, the effect of the atmospheric oxygen in the headspace volume would be similar. For example, the ratio of the headspace volume to the volume of oil, and the area of contact between the headspace and the oil surface, would be the same for Treated and Untreated samples.
Into 30 mL glass vial was placed 15 g of a commercial salad dressing that had been stored in the lab at room temperature for an unknown but extended period after opening. To this vial, 0.4002 g of PhPA-DiMeC 10A was added and mixed well. The mixture was allowed to stand on the bench top under ambient laboratory light at room temperature. Periodically, measurements were recorded of the POV by titration, rancid-smelling aldehydes by HPLC with DNPH derivatization (see method above), and sensory evaluation.

CN(C)CCO.CN(C)CCO.O=C(O)CCC(=O)C(=O)O [AKG DiDeanol]
POV Treated Perfume ([1]; […] (24 hours), 1.0% w/v in model perfume): 0.0 mmol/L

CCCCCCCCCCN(C)C.O=C(O)C(=O)Cc1ccccc1 [DiMeC10A-PhPA]
2-nonenal % reduction [2]: 52.4%
decanal % reduction [2]: 55.8%
heptanal % reduction [2]: 60%
hexanal % reduction [2]: 66.7%
nonanal % reduction [2]: 79%
octanal % reduction [2]: 72.3%
retention time 22.9 % reduction [2]: 51.3%
retention time 27.7 % reduction [2]: 72.7%
retention time 29.8 % reduction [2]: 70.5%
retention time 30.6 % reduction [2]: 65.5%
retention time 31.05 % reduction [2]: 68.1%
retention time […] reduction [2]: 63.3%
% of reduction in POV ([3]; 50 mins since addition): 0%
% of reduction in POV ([3]; 6 hrs since addition): 53%
% of reduction in POV ([3]; 26 hrs since addition): 62%

CCC(CC)(C(=O)[O-])C(=O)C(=O)O.[Na+] [Diethyloxaloacetate, Sodium Salt]
% POV Reduction ([1]; 165 Minutes after addition of treating compound): 36.9%
% POV Reduction ([1]; 24 hours after addition of treating compound): 92.7%
